Test system: JJ5 Breast Cancer cells
Experiment: Kinetics of binding and retention of radioactivity by the cells
Assay type: cell-based, human
Text: Breast cancer cells express up to 100-fold higher levels of EGFR than do normal epithelial tissues. EGFR expression in breast cancer bone metastasis biopsies ranged from 1-1300 fmol/mg membrane protein (approximately 400-1,000,000 receptors/cell) and was associated with high relapse rates and poor long term survival. Normal epithelial cells express <10^4 receptors/cell. For the normal breast cell line HBL-100, 8000 EGFR/cell has been reported. The expression of EGFR in breast cancer cell lines has a reported range of 800 EGFR/cell for MCF-7 cells to 10^6 EGFR/cell for MDA-MB-468 cells. […] Utilizing the Auger electron emitter ^111In was used in the initial experiments to illustrate the utility of the invention using EGF-^111In-labeled transferrin compounds. […] The cell pellet was separated from the supernatant and counted in a g-scintillation counter to determine bound (B) and free (F) radioactivity. Non-specific binding was determined by conducting the assay in 100 nM hEGF. […] Internalized fraction was measured by determining the proportion of radioactivity which could not be displaced from the cell surface by 100 nM hEGF. Cell-associated binding (surface-binding and intracellular accumulation) was expressed as a percentage of medium radioactivity bound per mg of cell study protein.

Substance: EGF-^111In-labeled transferrin compound: human epidermal growth factor (EGF) operatively linked (peptide or PEG linker, biotin-streptavidin) to 111In-radiolabeled human transferrin
- retained by the breast cancer cells (37° C., JJ5 cells): at least 24 hours
- 111In radioactivity lost from the cells in vitro (over a 24 hour period at 37° C.): < 8%
